These results are taken from patent publication US20240199585A1, “SOLID FORMS OF (3R)-N-[2-CYANO-4-FLUORO-3-(3-METHYL-4-OXO-QUINAZOLIN-6-YL)OXY-PHENYL]-3-FLUORO-PYRROLIDINE-1-SULFONAMIDE” (Hoffmann-La Roche Inc., priority 2021, published 2024).

Where only a bound is given, the exact number is not on record here.

The conditions of data set [1]: cited from earlier work.
A short description of data set [2]: Moisture sorption/desorption (dynamic vapour sorption, DVS). Format: physicochemical. The following applies: for Masschange (DVS): from 0%-90% RH; for Hygroscopicity: increase in mass from 0%-RH to 90%-RH. The procedure:
Moisture sorption/desorption data was collected on a DVS Advantage, a DVS Adventure, or a DVS Intrinsic (SMS Surface Measurements Systems) moisture balance system. The sorption/desorption isotherms were measured stepwise in a range from 0%-RH to 90%-RH at typically 25° C. A weight change of typically <0.001%/min was chosen as criterion to switch to the next level of relative humidity (with a maximum equilibration time of typically 24 hours, if the weight change criterion was not met). The data were corrected for the initial moisture content of the samples by taking the weight after drying of the samples at 0%-RH as zero point.
The hygroscopicity of a given substance was characterized (by close analogy with the European Pharmacopoeia) by the increase in mass when the relative humidity was raised from 0%-RH to 90%-RH: […]

The nature of data set [3]: High humidity storage experiments. Format: physicochemical.

For `CC(C)(C)c1nc(-c2cccc(NS(=O)(=O)c3c(F)cccc3F)c2F)c(-c2ccnc(N)n2)s1` [Dabrafenib], the brain permeability entry in data set [1] is listed as “very poor”.

Regarding `COC(=O)N[C@@H](C)CNc1nccc(-c2cn(C(C)C)nc2-c2cc(Cl)cc(NS(C)(=O)=O)c2F)n1` [Encorafenib], in data set [1], the brain permeability entry is reported as “very poor”.

With `CCCS(=O)(=O)Nc1ccc(F)c(C(=O)c2c[nH]c3ncc(-c4ccc(Cl)cc4)cc23)c1F` [Vemurafenib], the brain permeability entry in data set [1] is “very poor”.

In the case of `Cn1cnc2ccc(Oc3c(F)ccc(NS(=O)(=O)N4CC[C@@H](F)C4)c3C#N)cc2c1=O` [amorphous form, (3R)-N-[2-cyano-4-fluoro-3-(3-methyl-4-oxo-quinazolin-6-yl)oxy-phenyl]-3-fluoro-pyrrolidine-1-sulfonamide], in data set [2], the “Masschange (DVS)” value is recorded as around 3.8% and the Hygroscopicity entry is listed as “hygroscopic (weight increase 2.0% ≤ Dm < 15.0%)”. Further, the “Solid form stability in high humidity storage” value in data set [3] is given as “Recrystallization to Form A”.

As to `Cn1cnc2ccc(Oc3c(F)ccc(NS(=O)(=O)N4CC[C@@H](F)C4)c3C#N)cc2c1=O` [polymorphic form A, (3R)-N-[2-cyano-4-fluoro-3-(3-methyl-4-oxo-quinazolin-6-yl)oxy-phenyl]-3-fluoro-pyrrolidine-1-sulfonamide], in data set [2], the “Masschange (DVS)” value is below 0.2% and the Hygroscopicity entry is “not hygroscopic”. Besides, in data set [2] (sorption/desorption cycle 0%-90% RH), the “Solid form change during the DVS cycle” value is “no solid form change”.
